Earlier results in US7740874B2, “Method of making a lanolin free absorption base” (Quintessa Corporation, priority 2002, dated 2010).

Conditions: hydrophilic-lipophilic balance

For methyl glucose dioleate [emulsifier], the HLB is given as 5.
